Calls of active or inactive are those of the source. No cut-off for these calls is given here.
Legend:
[1] = target: T1, Nuclear receptor ROR-gamma (Mus musculus) (UniProt P51450); test: Inverse agonist activity at RORgammat in mouse naive CD4+ T cells assessed as […] of IL17 production at 0.001 to 10 uM after 4 days by ELISA; assay type: cell-based
T1 sequence (whole entry): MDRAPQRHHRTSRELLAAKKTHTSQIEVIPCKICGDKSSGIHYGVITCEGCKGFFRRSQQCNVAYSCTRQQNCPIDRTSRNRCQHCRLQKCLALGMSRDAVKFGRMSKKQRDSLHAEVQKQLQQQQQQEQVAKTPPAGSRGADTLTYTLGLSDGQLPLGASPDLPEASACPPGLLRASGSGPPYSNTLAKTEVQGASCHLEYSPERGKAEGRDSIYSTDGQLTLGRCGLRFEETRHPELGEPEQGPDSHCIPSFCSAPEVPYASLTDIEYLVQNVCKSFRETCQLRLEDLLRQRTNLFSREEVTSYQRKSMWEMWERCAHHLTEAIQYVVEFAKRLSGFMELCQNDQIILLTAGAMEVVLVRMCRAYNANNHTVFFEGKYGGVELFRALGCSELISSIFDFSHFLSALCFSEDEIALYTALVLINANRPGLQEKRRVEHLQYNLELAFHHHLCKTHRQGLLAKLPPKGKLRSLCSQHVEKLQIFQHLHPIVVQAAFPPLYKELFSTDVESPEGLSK

[2] = test system: HepG2; test: Cytotoxicity against human HepG2 cells at 100 uM; assay type: cell-based; conditions: hepg2, 100 µM
[3] = target: Cytochrome P450 3A4 (Homo sapiens, UniProt P08684); test: Inhibition of CYP3A4 (unknown origin) at 10 uM; assay type: ADME
Sequence of Cytochrome P450 3A4 (P08684 whole entry): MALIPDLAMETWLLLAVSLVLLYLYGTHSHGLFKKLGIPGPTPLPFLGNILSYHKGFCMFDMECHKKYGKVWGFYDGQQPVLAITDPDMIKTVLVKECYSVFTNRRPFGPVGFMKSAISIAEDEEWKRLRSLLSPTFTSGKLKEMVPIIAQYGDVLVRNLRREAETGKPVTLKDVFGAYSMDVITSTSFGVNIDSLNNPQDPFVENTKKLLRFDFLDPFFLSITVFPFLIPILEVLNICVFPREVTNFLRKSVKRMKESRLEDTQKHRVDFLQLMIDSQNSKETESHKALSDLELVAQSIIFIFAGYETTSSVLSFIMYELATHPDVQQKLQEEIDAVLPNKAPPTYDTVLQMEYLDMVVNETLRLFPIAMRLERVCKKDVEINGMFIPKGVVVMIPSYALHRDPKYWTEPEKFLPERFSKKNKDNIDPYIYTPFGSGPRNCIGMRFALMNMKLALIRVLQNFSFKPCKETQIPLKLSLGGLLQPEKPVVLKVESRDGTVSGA

[4] = target: T1, Nuclear receptor ROR-gamma (Mus musculus); test: Agonist activity at RORgammat in mouse naive CD4+ T cells assessed as induction of IL17 production at 0.1 to 3 uM after 4 days by ELISA; assay type: cell-based
[5] = Cmax in ICR mouse at 0.1 mg/kg, iv or 1 mg/kg, po by LC/MS/MS analysis; assay type: ADME, organism-based; conditions: in vivo
[6] = AUC (0 to 8 hrs) in ICR mouse at 0.1 mg/kg, iv or 1 mg/kg, po by LC/MS/MS analysis; assay type: ADME, organism-based; conditions: in vivo
[7] = MRT in ICR mouse at 0.1 mg/kg, iv or 1 mg/kg, po by LC/MS/MS analysis; assay type: ADME, organism-based; conditions: in vivo
[8] = Oral bioavailability in ICR mouse at 1 mg/kg by LC/MS/MS analysis; assay type: ADME, organism-based; conditions: in vivo

Activity [1] | inhibition (INH) [3] | Activity [4] | Cmax [5] [ng/mL] | AUC(0-t) [6] [ng·h/mL] | MRT [7] [h] | bioavailability [8] [%] | Structure (SMILES) | Activity [2]
Active |  |  |  |  |  |  | COc1ccc2c(n1)CCN(C(=O)CCCC(=O)O)[C@H]2C(=O)Nc1cc(F)c2c(c1)CCC2(C)C | 
 | Not Active | Dose-dependent effect | 227 | 1720 | 4.1 | 19 | CCOc1ccccc1CN1CCc2cc(NC(=O)[C@H]3c4ccc(OC)nc4CCN3C(=O)CCCC(=O)O)ccc21 | Non-Toxic
 |  | Dose-dependent effect |  |  |  |  | CCOc1ccccc1CN1CCc2cc(NC(=O)[C@H]3c4ccc(OC)nc4CCN3C(C)=O)ccc21 | 

Source: ChEMBL document CHEMBL4368916, “Design, Synthesis, and Biological Evaluation of Retinoic Acid-Related Orphan Receptor γt (RORγt) Agonist Structure-Based Functionality Switching Approach from In House RORγt Inverse Agonist to RORγt Agonist” (J Med Chem, 2019)
